Source: ChEMBL document CHEMBL1151825, “Schisanwilsonenes A-C, anti-HBV Carotane sesquiterpenoids from the fruits of Schisandra wilsoniana” (J Nat Prod, 2009)

Tests used:
Hepatitis B virus [1] = assay: Antiviral activity against HBV infected in human HepG2 2.2.15 cells assessed as inhibition of HBeAg secretion at 200 ug/mL after 9 days by ELISA; assay type: functional; conditions: HepG2, 216 h
Hepatitis B virus [2] = assay: Antiviral activity against HBV infected in human HepG2 2.2.15 cells assessed as inhibition of HBsAg secretion at 200 ug/mL after 9 days by ELISA; assay type: functional; conditions: HepG2, 216 h
Hepatitis B virus [3] = assay: Antiviral activity against HBV infected in human HepG2 2.2.15 cells assessed as inhibition of HBsAg secretion at 100 ug/mL after 9 days by ELISA; assay type: functional; conditions: HepG2, 216 h
Hepatitis B virus [4] = assay: Antiviral activity against HBV infected in human HepG2 2.2.15 cells assessed as inhibition of HBsAg secretion at 25 ug/mL after 9 days by ELISA; assay type: functional; conditions: HepG2, 216 h
Hepatitis B virus [5] = assay: Antiviral activity against HBV infected in human HepG2 2.2.15 cells assessed as inhibition of HBeAg secretion at 25 ug/mL after 9 days by ELISA; assay type: functional; conditions: HepG2, 216 h
Hepatitis B virus [6] = assay: Antiviral activity against HBV infected in human HepG2 2.2.15 cells assessed as inhibition of HBsAg secretion at 50 ug/mL after 9 days by ELISA; assay type: functional; conditions: HepG2, 216 h
Hepatitis B virus [7] = assay: Antiviral activity against HBV infected in human HepG2 2.2.15 cells assessed as inhibition of HBeAg secretion at 50 ug/mL after 9 days by ELISA; assay type: functional; conditions: HepG2, 216 h
Hepatitis B virus [8] = assay: Antiviral activity against HBV infected in human HepG2 2.2.15 cells assessed as inhibition of HBeAg secretion at 100 ug/mL after 9 days by ELISA; assay type: functional; conditions: HepG2, 216 h
[9] = Cytotoxicity of human HepG2(2.2.15) cells assessed as growth inhibition at 200 ug/mL by MTT assay; assay type: cell-based
[10] = Cytotoxicity of human HepG2(2.2.15) cells assessed as growth inhibition at 100 ug/mL by MTT assay; assay type: cell-based

Nc1ccn([C@@H]2CS[C@H](CO)O2)c(=O)n1 [LAMIVUDINE]
inhibition at 200 µg/mL (Hepatitis B virus [1]): 34.8% | inhibition at 200 µg/mL (Hepatitis B virus [2]): 28.6%

CC(=O)OCC1=CC[C@@H]2[C@H](C(C)(C)O)CC[C@@]2(C)CC1 (relative stereo) [SCHISANWILSONENE B]
inhibition at 100 µg/mL (Hepatitis B virus [3]): 58.6% | inhibition at 25 µg/mL (Hepatitis B virus [4]): 5.6% | inhibition at 25 µg/mL (Hepatitis B virus [5]): 0% | inhibition at 50 µg/mL (Hepatitis B virus [6]): 20.5% | inhibition at 50 µg/mL (Hepatitis B virus [7]): 0% | inhibition at 100 µg/mL (Hepatitis B virus [8]): 0% | inhibition at 200 ug/mL [9]: ≥ 25%

CC(C)(O)[C@@H]1CC[C@@]2(C)CCC(CO)=CC[C@H]12 (relative stereo) [SCHISANWILSONENE A]
inhibition at 100 ug/mL [10]: ≥ 25% | inhibition at 25 µg/mL (Hepatitis B virus [4]): 27.5% | inhibition at 25 µg/mL (Hepatitis B virus [5]): 11.3% | inhibition at 50 µg/mL (Hepatitis B virus [6]): 76.5% | inhibition at 50 µg/mL (Hepatitis B virus [7]): 28.9% | inhibition at 200 ug/mL [9]: ≥ 25%

CC(C)(O)[C@@H]1CC[C@@]2(C)CCC(C=O)=CC[C@H]12 (relative stereo) [SCHISANWILSONENE C]
inhibition at 100 µg/mL (Hepatitis B virus [3]): 11.7% | inhibition at 200 µg/mL (Hepatitis B virus [1]): 8.8% | inhibition at 200 µg/mL (Hepatitis B virus [2]): 28.3% | inhibition at 25 µg/mL (Hepatitis B virus [4]): 0% | inhibition at 25 µg/mL (Hepatitis B virus [5]): 1.1% | inhibition at 50 µg/mL (Hepatitis B virus [6]): 5.5% | inhibition at 50 µg/mL (Hepatitis B virus [7]): 1.4% | inhibition at 100 µg/mL (Hepatitis B virus [8]): 6.1%
